From patent publication US8815934B2, “2-Phenyl-1-[4-(2-Aminoethoxy)-Benzyl]-Indole and estrogen formulations” (Wyeth LLC, priority 1998, dated 2014)

Assays:
estrogen receptor = estrogen receptor (Homo sapiens (Human), UniProt P03372); assay: 2×VIT ERE infection luciferase assay; assay type: cell-based; conditions: for Infection Luciferase Activity, 1 uM + 17β estradiol: 1 uM compound + 1 nM 17β-estradiol (estrogen antagonism); for Infection Luciferase Activity, 1 uM: 1 uM compound alone, percentage of activity as compared to 17β-estradiol
Sequence of estrogen receptor (P03372 whole entry): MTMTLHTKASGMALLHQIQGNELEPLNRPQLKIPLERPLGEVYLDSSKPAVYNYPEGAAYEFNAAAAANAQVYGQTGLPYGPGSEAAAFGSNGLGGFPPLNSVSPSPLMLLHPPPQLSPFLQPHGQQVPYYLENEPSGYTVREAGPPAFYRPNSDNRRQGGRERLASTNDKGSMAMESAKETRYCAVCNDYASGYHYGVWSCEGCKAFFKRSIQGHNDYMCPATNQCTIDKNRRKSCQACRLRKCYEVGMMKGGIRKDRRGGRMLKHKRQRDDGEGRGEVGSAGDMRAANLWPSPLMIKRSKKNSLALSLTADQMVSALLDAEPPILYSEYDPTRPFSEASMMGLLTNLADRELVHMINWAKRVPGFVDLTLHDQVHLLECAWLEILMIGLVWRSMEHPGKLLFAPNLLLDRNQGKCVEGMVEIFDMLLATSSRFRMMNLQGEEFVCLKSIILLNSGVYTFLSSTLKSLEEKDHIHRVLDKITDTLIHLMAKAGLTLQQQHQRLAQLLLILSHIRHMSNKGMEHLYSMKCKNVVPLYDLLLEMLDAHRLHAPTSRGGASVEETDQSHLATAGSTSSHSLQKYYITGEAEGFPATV
Description: Chinese Hamster Ovary cells (CHO) which had been stably transfected with the human estrogen receptor were maintained in DMEM+10% fetal bovine serum (FBS). 48 h prior to treatment the growth medium was replaced with DMEM lacking phenol red+10% dextran coated charcoal stripped FBS (treatment medium). Cells were plated at a density of 5000 cells/well in 96-well plates containing 200 μL of medium/well.
Reporter DNA (Promega plasmid pGL2 containing two tandem copies of the vitellogenin ERE in front of the minimal thymidine kinase promoter driving the luciferase gene) was combined with the B-galactosidase expression plasmid pCH110 (Pharmacia) and carrier DNA (pTZ18U) in the following ratio:
20 uL of this mixture was added to each well of cells and remained on the cells for 16 h. […] Each treatment condition was performed on 8 wells (n=8) which were incubated for 24 h prior to the luciferase assay.
After removing the PBS, 25 uL of Promega lysis buffer was added to each well and allowed to stand at room temperature for 15 min, followed by 15 min at −80° C. and 15 min at 37° C. 20 uL of lysate was transferred to an opaque 96 well plate for luciferase activity evaluation and the remaining lysate (5 uL) was used for the B-galactosidase activity evaluation (normalize transfection). The luciferan substrate (Promega) was added in 100 uL aliquots to each well automatically by the luminometer and the light produced (relative light units) was read 10 seconds after addition.
To the remaining 5 uL of lysate 45 uL of PBS was added. Then 50 uL of Promega B-galactosidase 2× assay buffer was added, mixed well and incubated at 37° C. for 1 hour. A plate containing a standard curve (0.1 to 1.5 milliunits in triplicate) was set up for each experimental run. The plates were analyzed on a Molecular Devices spectrophotometric plate reader at 410 nm. The optical densities for the unknown were converted to milliunits of activity by mathematical extrapolation from the standard curve.
The luciferase data was generated as relative light units (RLUs) accumulated during a 10 second measurement and automatically transferred to a JMP (SAS Inc) file where background RLUs were subtracted. The B-galactosidase values were automatically imported into the file and these values were divided into the RLUs to normalize the data. The mean and standard deviations were determined from a n=8 for each treatment. […] These techniques are described by Tzukerman, M. T., Esty, A., Santiso-Mere, D., Danielian, P., Parker, M. G., Stein, R. B., Pike, J. W. and McDonnel, D. P. (1994). Human estrogen receptor transactivational capacity was determined by both cellular and promoter context and mediated by two functionally distinct intramolecular regions (see Molecular Endocrinology, 8:21-30).

[1] = test system: Immature Sprague-Dawley rats; assay: Rat uterotrophic/antiuterotrophic bioassay; assay type: in vivo; conditions: immature female rats, daily ip; for Uterine wt mg 100 uG cmpd + 1uG 17β-estradiol: 100 uG compound + 1 uG 17β-estradiol; for Uterine wt mg 100 uG cmpd: 100 uG compound, wet weight
Description: The estrogenic and antiestrogenic properties of the compounds were determined in an immature rat uterotrophic assay (4 day) that (as described previously by L. J. Black and R. L. Goode, Life Sciences, 26, 1453 (1980)). Immature Sprague-Dawley rats (female, 18 days old) were tested in groups of six. […] On day 4 the animals were sacrificed by CO2 asphyxiation and their uteri were removed and stripped of excess lipid, any fluid removed and the wet weight determined. A small section of one horn was submitted for histology and the remainder used to isolate total RNA in order to evaluate complement component 3 gene expression.

SMILES | Infection Luciferase Activity, 1 uM + 17β estradiol (estrogen receptor) [%] | Infection Luciferase Activity, 1 uM (estrogen receptor) [%] | Uterine wt mg 100 uG cmpd + 1uG 17β-estradiol [1] [mg] | Uterine wt mg 100 uG cmpd [1] [mg]
Cc1c(-c2ccccc2)n(Cc2ccc(OCCN3CCCCC3)cc2)c2ccc(O)cc12 [No. 87, 3-Methyl-2-phenyl-1-[4-(2-piperidine-1-yl-ethoxy)-benzyl]-1H-indol-5-ol] | 0 | 0 |  | 
Cc1c(-c2ccc(O)cc2)n(Cc2ccc(OCCN3CCCCC3)cc2)c2ccc(F)cc12 [No. 94, 4-{5-Fluoro-3-methyl-1-[4-(2-piperidin-1-yl-ethoxy)-benzyl]-1H-indol-2-yl}-phenol] |  |  | 93.7 | 28.1
Cc1c(-c2ccccc2)n(Cc2ccc(OCCN3CCCCCC3)cc2)c2ccc(O)cc12 [No. 95, 1-[4-(2-Azepan-1-yl-ethoxy)-benzyl]-3-methyl-2-phenyl-1H-indol-5-ol] | −4 | −4 |  | 
Cc1c(-c2ccc(O)cc2)n(Cc2ccc(OCCN3CCCC3)cc2)c2ccc(O)cc12 [No. 96, 2-(4-Hydroxy-phenyl)-3-methyl-1-[4-(2-pyrollidin-1-yl-ethoxy)-benzyl]-1H-indol-5-ol] | 8 | 12 |  | 
Cc1c(-c2ccc(O)cc2)n(Cc2ccc(OCCN3CCCCC3)cc2)c2ccc(O)cc12 [No. 97, 2-(4-Hydroxy-phenyl)-3-methyl-1-[4-(2-piperidin-1-yl-ethoxy)-benzyl]-1H-indol-5-ol] |  |  | 24.3 | 27.4
Cc1c(-c2ccc(O)cc2)n(Cc2ccc(OCCN(C)C)cc2)c2ccc(O)cc12 [No. 100, 2-(4-Hydroxy-phenyl)-3-methyl-1-[4-(2-dimethyl-1-yl-ethoxy)-benzyl]-1H-indol-5-ol] |  |  | 68.7 | 59.9
CCN(CC)CCOc1ccc(Cn2c(-c3ccc(O)cc3)c(C)c3cc(O)ccc32)cc1 [No. 101, 2-(4-Hydroxy-phenyl)-3-methyl-1-[4-(2-diethyl-1-yl-ethoxy)-benzyl]-1H-indol-5-ol] |  |  | 71.0 | 65.1
CCCN(CCC)CCOc1ccc(Cn2c(-c3ccc(O)cc3)c(C)c3cc(O)ccc32)cc1 [No. 102, 1-[4-(2-Dipropylamino-ethoxy)-benzyl]-2-(4-hydroxy-phenyl)-3-methyl-1H-indol-5-ol] | 10 | 9 |  | 
CCCCN(CCCC)CCOc1ccc(Cn2c(-c3ccc(O)cc3)c(C)c3cc(O)ccc32)cc1 [No. 103, 1-[4-(2-Dibutylamino-ethoxy)-benzyl]-2-(4-hydroxy-phenyl)-3-methyl-1H-indol-5-ol] | 10 | 13 |  | 
Cc1c(-c2ccc(O)cc2)n(Cc2ccc(OCCN(C(C)C)C(C)C)cc2)c2ccc(O)cc12 [No. 104, 1-[4-(2-Diisopropylamino-ethoxy)-benzyl]-2-(4-hydroxy-phenyl)-3-methyl-1H-indol-5-ol] | 7 | 7 |  | 
CCCCN(C)CCOc1ccc(Cn2c(-c3ccc(O)cc3)c(C)c3cc(O)ccc32)cc1 [No. 105, 1-{4-[2-(Butyl-methyl-amino)-ethoxy]-benzyl}-2-(4-hydroxy-phenyl)-3-methyl-1H-indol-5-ol] | 5 | 5 |  | 
Cc1c(-c2ccc(O)cc2)n(Cc2ccc(OCCN3CCCCC3C)cc2)c2ccc(O)cc12 (stereo not shown) [No. 108, 2-(4-Hydroxy-phenyl)-3-methyl-1-{4-[2-(2-methyl-piperidin-1-yl)-ethoxy]-benzyl}-1H-indol-5-ol] | 10 | 11 |  | 
Cc1c(-c2ccc(O)cc2)n(Cc2ccc(OCCN3CCCC(C)C3)cc2)c2ccc(O)cc12 (stereo not shown) [No. 109, 2-(4-Hydroxy-phenyl)-3-methyl-1-{4-[2-(3-methyl-piperidin-1-yl)-ethoxy]-benzyl}-1H-indol-5-ol] | 5 | 6 |  | 
Cc1c(-c2ccc(O)cc2)n(Cc2ccc(OCCN3CCC(C)CC3)cc2)c2ccc(O)cc12 [No. 110, 2-(4-Hydroxy-phenyl)-3-methyl-1-{4-[2-(4-methyl-piperidin-1-yl)-ethoxy]-benzyl}-1H-indol-5-ol] | 10 | 8 |  | 
Cc1c(-c2ccc(O)cc2)n(Cc2ccc(OCCN3CCCC(C)(C)C3)cc2)c2ccc(O)cc12 [No. 111, 1-{4-[2-(3,3-Dimethyl-piperidin-1-yl)-ethoxy]-benzyl}2-(4-hydroxy-phenyl)-3-methyl-1H-indol-5-ol] | 23 | 25 |  | 
Cc1c(-c2ccc(O)cc2)n(Cc2ccc(OCCN3CCC(O)CC3)cc2)c2ccc(O)cc12 [No. 113, 2-(4-Hydroxy-phenyl)-1-{4-[2-(4-hydroxy-piperidin-1-yl)-ethoxy]-benzyl}-3-methyl-1H-indol-5-ol] | 16 | 14 |  | 
Cc1c(-c2ccc(O)cc2)n(Cc2ccc(OCCN3C[C@@H]4CC[C@H]3C4)cc2)c2ccc(O)cc12 [No. 114, (1S,4R)-1-{4-[2-(2-Aza-bicyclo[2.2.1]hept-2-yl)-ethoxy]-benzyl}-2-(4-hydroxy-phenyl)-3-methyl-1H-indol-5-ol] | −1 | 1 |  | 
Cc1c(-c2ccc(O)cc2)n(Cc2ccc(OCCN3CC4(C)CC3CC(C)(C)C4)cc2)c2ccc(O)cc12 (stereo not shown) [No. 115, 2-(4-Hydroxy-phenyl)-3-methyl-1-{4-[2-(1,3,3-trimethyl-6-aza-bicyclo[3.2.1]oct-6-yl)-ethoxy]-benzyl}-1H-indol-5-ol] | 10 | 11 |  | 
Cc1c(-c2cccc(O)c2)n(Cc2ccc(OCCN3CCCCC3)cc2)c2ccc(O)cc12 [No. 127, 2-(3-Hydroxy-phenyl)-3-methyl-1-[4-(2-piperidin-1-yl-ethoxy)-benzyl]-1H-indol-5-ol] | −4 | −3 |  | 
Oc1ccc(-c2c(Cl)c3cc(O)ccc3n2Cc2ccc(OCCN3CCCC3)cc2)cc1 [No. 133, 3-Chloro-2-(4-hydroxy-phenyl)-1-[4-(2-pyrrolidin-1-yl-ethoxy)-benzyl]-1H-indol-5-ol] | 9 | 7 |  | 
CCc1c(-c2ccc(O)cc2)n(Cc2ccc(OCCN3CCCCC3)cc2)c2ccc(O)cc12 [No. 137, 2-(4-Hydroxy-phenyl)-3-ethyl-1-[4-(2-piperidin-1-yl-ethoxy)-benzyl]-1H-indol-5-ol] | 8 | 6 |  | 
N#Cc1c(-c2ccc(O)cc2)n(Cc2ccc(OCCN3CCCCCC3)cc2)c2ccc(O)cc12 [No. 139, 1-[4-(2-Azepan-1-yl-ethoxy)-benzyl]-5-hydroxy-2-(4-hydroxy-phenyl)-1H-indole-3-carbonitrile] |  |  | 45.0 | 30.4
Cc1c(-c2ccc(O)cc2)n(Cc2ccc(OCCCN3CCCCC3)cc2)c2ccc(O)cc12 [No. 166, 2-(4-Hydroxy-phenyl)-3-methyl-1-{4-[3-(piperidin-1-yl)-propoxy]-benzyl}-1H-indol-5-ol] | 23 | 25 |  | 
